In assay [1] the target is T1, PilF1-889 (full-length PilF) (Thermus thermophilus, UniProt Q5SLC9).
T1 sequence (Q5SLC9 1-889): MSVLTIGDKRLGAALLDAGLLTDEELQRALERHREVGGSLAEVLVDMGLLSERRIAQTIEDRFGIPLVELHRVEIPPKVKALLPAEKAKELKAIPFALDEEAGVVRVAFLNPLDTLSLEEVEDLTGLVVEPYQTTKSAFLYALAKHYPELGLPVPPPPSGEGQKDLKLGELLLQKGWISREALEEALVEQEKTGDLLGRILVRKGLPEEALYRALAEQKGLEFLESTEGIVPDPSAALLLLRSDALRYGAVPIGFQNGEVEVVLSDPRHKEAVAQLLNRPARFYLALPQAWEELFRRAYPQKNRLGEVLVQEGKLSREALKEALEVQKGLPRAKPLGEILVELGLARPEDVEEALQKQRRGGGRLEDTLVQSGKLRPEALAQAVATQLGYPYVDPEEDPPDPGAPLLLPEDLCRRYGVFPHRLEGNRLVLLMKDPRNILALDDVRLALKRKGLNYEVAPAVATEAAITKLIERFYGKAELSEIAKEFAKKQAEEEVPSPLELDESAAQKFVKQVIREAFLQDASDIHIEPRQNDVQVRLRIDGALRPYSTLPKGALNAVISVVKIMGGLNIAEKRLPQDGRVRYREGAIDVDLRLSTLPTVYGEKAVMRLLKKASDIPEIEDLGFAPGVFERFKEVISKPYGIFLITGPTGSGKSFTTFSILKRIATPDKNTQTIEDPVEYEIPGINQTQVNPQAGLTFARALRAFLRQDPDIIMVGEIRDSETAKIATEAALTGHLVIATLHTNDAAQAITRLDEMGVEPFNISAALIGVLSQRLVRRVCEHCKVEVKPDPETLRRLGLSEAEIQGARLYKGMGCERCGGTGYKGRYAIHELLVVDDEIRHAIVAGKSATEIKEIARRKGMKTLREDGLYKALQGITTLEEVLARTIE
The assay can be described thus: ITC c-di-GMP binding to full-length PilF. The settings on record: 20 °C; for Kd: pH 7.5, two-site model. The procedure:
(§1) To assess the ligand-binding capabilities of the various PilF constructs, triplicates of ITC measurements were recorded for each construct. The measurements were carried out using a MicroCal ITC200 (Malvern Panalytical). All ITC experiments were conducted at 20 °C with 50 mM Tris-HCl pH 7.5, 200 mM sodium chloride, 1 mM β-mercaptoethanol as the sample buffer. All protein samples were extensively dialyzed against the sample buffer and the buffer used for dialysis was used to dilute protein and c-di-GMP samples in preparation for the ITC measurements. Each measurement was conducted using the following protocol. In total, 39.8 μl c-di-GMP were titrated to 270 μl protein in 20 separate injections in 180 s intervals with a stirring speed of 750 rpm. After an initial delay of 120 s, the first injection of 0.2 μl c-di-GMP with a duration of 0.4 s was followed by 19 injections of 2 μl with a duration of 4 s. During the measurement, the feedback mode was set to high and the reference power to 11 μcal s^−1. To optimize precision of the measurements, protein and c-di-GMP concentrations were adjusted to the binding capabilities of the respective constructs and ranged from 5 to 200 μM for protein and 50 to 2000 μM for c-di-GMP. All thermograms were processed using Origin 7.0 (OriginLab) using a one-site– or two-site–binding model dependent on the number of expected binding events.

Assay [2] has as its target T2, PilF159-302 L166G (Thermus thermophilus, UniProt Q5SLC9, L166G).
T2 sequence (Q5SLC9 159-302 L166G): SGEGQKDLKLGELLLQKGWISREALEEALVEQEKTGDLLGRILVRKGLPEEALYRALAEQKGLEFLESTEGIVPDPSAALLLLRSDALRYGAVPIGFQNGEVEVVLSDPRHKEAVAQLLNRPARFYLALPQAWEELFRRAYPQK
The assay can be described thus: ITC binding to PilF159-302 L166G. The settings on record: 20 °C. As to the method: as §1

Assay [3] has as its target T3, PilF159-302 K167R+E170D (Thermus thermophilus, UniProt Q5SLC9, E170D/K167R).
T3 sequence (Q5SLC9 159-302 K167R/E170D): T2 sequence (Q5SLC9 159-302 L166G)
Kind of assay: ITC binding to PilF159-302 K167R-E170D. The settings on record: 20 °C. As to the method: as §1

The structures appear in SMILES notation. Where two headings read alike, the source gives them in different places.

For `Nc1nc2c(ncn2[C@@H]2O[C@@H]3COP(=O)(O)O[C@H]4[C@@H](O)[C@H](n5cnc6c(=O)[nH]c(N)nc65)O[C@@H]4COP(=O)(O)O[C@H]3[C@H]2O)c(=O)[nH]1` [c-di-GMP, cyclic dimeric guanosine monophosphate], in assay [1] (Table S1 site 1), the “ΔH, site 1” value is -11.763 ± 0.78 kcal/mol and the “ΔS, site 1” value was -10.4 ± 2.7 cal/mol/deg. For the same compound, in assay [1] (Table S1 site 1 (low affinity)), the “N, site 1” value was 0.72 ± 0.10. Also, in assay [1] (Table S1 site 2), the “ΔH, site 2” value was -15.683 ± 0.97 kcal/mol and the “ΔS, site 2” value is reported as -16.5 ± 2.2 cal/mol/deg. In addition, the “N, site 2” value in assay [1] (Table S1 site 2 (high affinity)) came out at 0.59 ± 0.03. Besides, in assay [1] (read-out: KD, high-affinity site (KD1 in text and Fig. 1C; site 2 in Table S1)), the Kd (as a rule, the equilibrium constant for the complex coming apart) was determined as 10 ± 5 nM. Also, in assay [1] (read-out: KD, low-affinity site (KD2 in text and Fig. 1C; site 1 in Table S1)), the dissociation constant (Kd) amounted to 324 ± 2 nM. Further, in assay [2], the N worked out at 0.92 ± 0.10, the ΔH was -10.283 ± 0.189 kcal/mol and the ΔS was 1.2 ± 3.4 cal/mol/deg. Besides, in assay [2] (pH 7.5), the affinity, expressed as Kd, was 3 nM. In assay [3], the N came out at 0.76 ± 0.03, the ΔH was -12.843 ± 0.363 kcal/mol and the ΔS is given as -11.6 ± 1.3 cal/mol/deg. The equilibrium dissociation constant (Kd) in assay [3] (pH 7.5) was 92 ± 8 nM.

The record behind these values is publication PMC11731258, “The structural basis for high-affinity c-di-GMP binding to the GSPII-B domain of the traffic ATPase PilF from Thermus thermophilus” (The Journal of Biological Chemistry, 2024).
